Data as given in PubChem BioAssay AID256 (DTP/NCI, 2004).
“And” between values parts separate entries of the source, which are not always exact repeats. Equal entries are not always repeated. Toxic doses and inconclusive results are not listed.

System: CD2F1 mice, L1210 leukemia ip, survival T/C
Assay: NCI In Vivo Anticancer Drug Screen. Data for tumor model L1210 Leukemia (intraperitoneal) in CD2F1 (CDF1) mice
Conditions: higher = longer survival
How it was run: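 Transplantable tumor in mice; compound-treated vs vehicle-treated groups. Read-out = treated/control ratio of the measured endpoint.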

[1] = endpoint: mean survival time, dose: 100.0 mg/kg/injection, schedule: Q01DX001 (ip), vehicle: saline with Tween-80
[2] = endpoint: mean survival time, dose: 200.0 mg/kg/injection, schedule: Q01DX001 (ip), vehicle: saline with Tween-80
[3] = endpoint: mean survival time, dose: 400.0 mg/kg/injection, schedule: Q01DX001 (ip), vehicle: saline with Tween-80
[4] = endpoint: mean survival time, dose: 100.0 mg/kg/injection, schedule: Q01DX001 (ip), vehicle: saline
[5] = endpoint: mean survival time, dose: 200.0 mg/kg/injection, schedule: Q01DX001 (ip), vehicle: saline
[6] = endpoint: mean survival time, dose: 400.0 mg/kg/injection, schedule: Q01DX001 (ip), vehicle: saline
[7] = endpoint: mean survival time, dose: 100.0 mg/kg/injection, schedule: Q04DX002 (ip), vehicle: saline with Tween-80
[8] = endpoint: mean survival time, dose: 200.0 mg/kg/injection, schedule: Q04DX002 (ip), vehicle: saline with Tween-80
[9] = endpoint: mean survival time, dose: 400.0 mg/kg/injection, schedule: Q04DX002 (ip), vehicle: saline with Tween-80
[10] = endpoint: mean survival time, dose: 100.0 mg/kg/injection, schedule: Q04DX003 (ip), vehicle: saline with Tween-80
[11] = endpoint: mean survival time, dose: 200.0 mg/kg/injection, schedule: Q04DX003 (ip), vehicle: saline with Tween-80
[12] = endpoint: mean survival time, dose: 75.0 mg/kg/injection, schedule: Q01DX001 (ip), vehicle: saline
[13] = endpoint: mean survival time, dose: 150.0 mg/kg/injection, schedule: Q01DX001 (ip), vehicle: saline
[14] = endpoint: mean survival time, dose: 12.5 mg/kg/injection, schedule: Q01DX009 (ip), vehicle: saline with Tween-80
[15] = endpoint: mean survival time, dose: 25.0 mg/kg/injection, schedule: Q01DX009 (ip), vehicle: saline with Tween-80
[16] = endpoint: mean survival time, dose: 100.0 mg/kg/injection, schedule: Q01DX009 (ip), vehicle: saline with Tween-80
[17] = endpoint: mean survival time, dose: 200.0 mg/kg/injection, schedule: Q01DX009 (ip), vehicle: saline with Tween-80

COc1ccc(C=C2C(=O)C=CC2=O)cc1OC
T/C (endpoint: mean survival time, dose: 5.0 mg/kg/injection, schedule: Q04DX002 (ip), vehicle: saline with Tween-80): 103 % of control | T/C (endpoint: mean survival time, dose: 10.0 mg/kg/injection, schedule: Q04DX002 (ip), vehicle: saline with Tween-80): 103 % of control

Nc1ncnc2nc(CCCCc3ccccc3)[nH]c12
T/C (endpoint: mean survival time, dose: 3.0 mg/kg/injection, schedule: Q01DX009 (ip), vehicle: saline with Tween-80): 95 % of control | T/C (endpoint: mean survival time, dose: 6.0 mg/kg/injection, schedule: Q01DX009 (ip), vehicle: saline with Tween-80): 106 % of control | T/C (endpoint: mean survival time, dose: 12.0 mg/kg/injection, schedule: Q01DX009 (ip), vehicle: saline with Tween-80): 104 % of control

O=C(O)c1ccc([N+](=O)[O-])nc1
T/C [1]: 91 % of control | T/C [2]: 95 % of control | T/C [3]: 93 % of control

O=P1(C(Cl)Cl)OCCCO1
T/C [4]: 103 % of control | T/C [5]: 100 % of control | T/C [6]: 100 % of control

O=C1CC(NC(=O)C(F)(F)F)C(=O)O1 (stereo not drawn)
T/C (endpoint: mean survival time, dose: 100.0 mg/kg/injection, schedule: Q04DX003 (ip), vehicle: saline): 94 % of control | T/C (endpoint: mean survival time, dose: 200.0 mg/kg/injection, schedule: Q04DX003 (ip), vehicle: saline): 95 % of control | T/C (endpoint: mean survival time, dose: 400.0 mg/kg/injection, schedule: Q04DX003 (ip), vehicle: saline): 94 % of control

CC1=C(CCC#N)C(=O)C(CCC#N)C(C)(C)C1 (stereo not drawn)
T/C [7]: 94 % of control | T/C [8]: 89 % of control

NC1=NCN(C2OC(COC(=O)c3ccccc3)C(OC(=O)c3ccccc3)C2OC(=O)c2ccccc2)C(=O)N1 (stereo not drawn)
T/C (endpoint: mean survival time, dose: 3.12 mg/kg/injection, schedule: Q01DX009 (ip), vehicle: saline): 97 % of control and 108 % of control | T/C (endpoint: mean survival time, dose: 6.25 mg/kg/injection, schedule: Q01DX009 (ip), vehicle: saline): 91 % of control and 102 % of control | T/C (endpoint: mean survival time, dose: 12.5 mg/kg/injection, schedule: Q01DX009 (ip), vehicle: saline): 91 % of control and 100 % of control | T/C (endpoint: mean survival time, dose: 25.0 mg/kg/injection, schedule: Q01DX009 (ip), vehicle: saline): 94 % of control and 97 % of control | T/C (endpoint: mean survival time, dose: 50.0 mg/kg/injection, schedule: Q01DX009 (ip), vehicle: saline): 112 % of control and 100 % of control | T/C (endpoint: mean survival time, dose: 100.0 mg/kg/injection, schedule: Q01DX009 (ip), vehicle: saline): 122 % of control and 108 % of control | T/C (endpoint: mean survival time, dose: 200.0 mg/kg/injection, schedule: Q01DX009 (ip), vehicle: saline): 165 % of control

OC(CI)C1OCOC2COCOC21 (stereo not drawn)
T/C (endpoint: mean survival time, dose: 100.0 mg/kg/injection, schedule: Q04DX003 (ip), vehicle: Klucel (hydroxypropylcellulose) (HPC)): 102 % of control | T/C (endpoint: mean survival time, dose: 200.0 mg/kg/injection, schedule: Q04DX003 (ip), vehicle: Klucel (hydroxypropylcellulose) (HPC)): 94 % of control | T/C (endpoint: mean survival time, dose: 400.0 mg/kg/injection, schedule: Q04DX003 (ip), vehicle: Klucel (hydroxypropylcellulose) (HPC)): 97 % of control

NC(=O)c1ccccc1C(=O)O
T/C [4]: 105 % of control | T/C [5]: 102 % of control | T/C [6]: 94 % of control

COc1ccccc1NC(=O)OCC(Cl)(Cl)Cl
T/C [7]: 103 % of control | T/C [8]: 100 % of control | T/C [9]: 95 % of control

CCCc1nc(N)[nH]c(=O)c1CCCCc1ccccc1
T/C [10]: 88 % of control | T/C [11]: 94 % of control | T/C (endpoint: mean survival time, dose: 400.0 mg/kg/injection, schedule: Q04DX003 (ip), vehicle: saline with Tween-80): 93 % of control

CCN(CC)C(=S)SC
T/C [12]: 104 % of control | T/C [13]: 106 % of control

C1C[N-]CC[N-]1.[Cl][Pt+2][Cl]
T/C (endpoint: mean survival time, dose: 7.8 mg/kg/injection, schedule: Q04DX003 (ip), vehicle: saline with Tween-80): 97 % of control | T/C (endpoint: mean survival time, dose: 62.5 mg/kg/injection, schedule: Q04DX003 (ip), vehicle: saline with Tween-80): 90 % of control | T/C (endpoint: mean survival time, dose: 125.0 mg/kg/injection, schedule: Q04DX003 (ip), vehicle: saline with Tween-80): 94 % of control

CN(C)CCCN=Cc1cc(Cl)ccc1O.CN(C)CCCN=Cc1cc(Cl)ccc1O.[Ni+2]
T/C (endpoint: mean survival time, dose: 6.25 mg/kg/injection, schedule: Q01DX009 (ip), vehicle: saline with Tween-80): 93 % of control | T/C [14]: 93 % of control | T/C [15]: 100 % of control

CCCCCCCCCCCCOC(=O)C[n+]1cccc(C(=O)Nc2ccccc2)c1
T/C [15]: 95 % of control | T/C [10]: 102 % of control

CN=C(N)N/N=C(\C)c1ccc2c(c1)Cc1ccccc1-2
T/C [14]: 102 % of control | T/C [15]: 105 % of control | T/C (endpoint: mean survival time, dose: 50.0 mg/kg/injection, schedule: Q01DX009 (ip), vehicle: saline with Tween-80): 108 % of control | T/C [16]: 97 % of control | T/C [17]: 91 % of control | T/C (endpoint: median survival time, dose: 12.5 mg/kg/injection, schedule: Q01DX009 (ip), vehicle: saline with Tween-80): 101 % of control | T/C (endpoint: median survival time, dose: 25.0 mg/kg/injection, schedule: Q01DX009 (ip), vehicle: saline with Tween-80): 106 % of control | T/C (endpoint: median survival time, dose: 50.0 mg/kg/injection, schedule: Q01DX009 (ip), vehicle: saline with Tween-80): 103 % of control | T/C (endpoint: median survival time, dose: 100.0 mg/kg/injection, schedule: Q01DX009 (ip), vehicle: saline with Tween-80): 101 % of control | T/C (endpoint: median survival time, dose: 200.0 mg/kg/injection, schedule: Q01DX009 (ip), vehicle: saline with Tween-80): 106 % of control

CCSCCNC1=C(C)C(=O)C2=C(C1=O)[C@H](COC(N)=O)[C@]1(OC)[C@H]3[C@@H](CN21)N3C (stereo partly drawn)
T/C (endpoint: mean survival time, dose: 1.5 mg/kg/injection, schedule: Q01DX001 (ip), vehicle: distilled water + Tween-80): 103 % of control | T/C (endpoint: mean survival time, dose: 3.0 mg/kg/injection, schedule: Q01DX001 (ip), vehicle: distilled water + Tween-80): 96 % of control and 103 % of control and 109 % of control | T/C (endpoint: mean survival time, dose: 6.0 mg/kg/injection, schedule: Q01DX001 (ip), vehicle: distilled water + Tween-80): 104 % of control and 107 % of control and 108 % of control | T/C (endpoint: mean survival time, dose: 12.0 mg/kg/injection, schedule: Q01DX001 (ip), vehicle: distilled water + Tween-80): 115 % of control and 102 % of control and 110 % of control | T/C (endpoint: mean survival time, dose: 24.0 mg/kg/injection, schedule: Q01DX001 (ip), vehicle: distilled water + Tween-80): 121 % of control and 124 % of control | T/C (endpoint: mean survival time, dose: 48.0 mg/kg/injection, schedule: Q01DX001 (ip), vehicle: distilled water + Tween-80): 115 % of control

Cc1ccc(S(=O)(=O)OCOS(=O)(=O)c2ccc(C)cc2)cc1
T/C (endpoint: median survival time, dose: 50.0 mg/kg/injection, schedule: Q01DX009 (ip), vehicle: Klucel (hydroxypropylcellulose) (HPC)): 113 % of control | T/C (endpoint: median survival time, dose: 100.0 mg/kg/injection, schedule: Q01DX009 (ip), vehicle: Klucel (hydroxypropylcellulose) (HPC)): 107 % of control and 111 % of control | T/C (endpoint: median survival time, dose: 200.0 mg/kg/injection, schedule: Q01DX009 (ip), vehicle: Klucel (hydroxypropylcellulose) (HPC)): 122 % of control and 112 % of control | T/C (endpoint: median survival time, dose: 800.0 mg/kg/injection, schedule: Q01DX009 (ip), vehicle: Klucel (hydroxypropylcellulose) (HPC)): 124 % of control and 103 % of control

CCC1(C)CCC2=C(CCC3C(C)(C(=O)OC)CCCC23C)C1 (stereo not drawn)
T/C [1]: 93 % of control | T/C [2]: 89 % of control | T/C [3]: 89 % of control

CCCCCCCCCCNCCC(=O)O
T/C (endpoint: mean survival time, dose: 37.5 mg/kg/injection, schedule: Q04DX003 (ip), vehicle: saline): 97 % of control | T/C (endpoint: mean survival time, dose: 75.0 mg/kg/injection, schedule: Q04DX003 (ip), vehicle: saline): 94 % of control | T/C (endpoint: mean survival time, dose: 150.0 mg/kg/injection, schedule: Q04DX003 (ip), vehicle: saline): 97 % of control

Nc1nc(=S)c2ncn(C3CC(O)C(CO)C3)c2[nH]1 (stereo not drawn)
T/C (endpoint: mean survival time, dose: 50.0 mg/kg/injection, schedule: Q01DX009 (ip), vehicle: Klucel (hydroxypropylcellulose) (HPC)): 94 % of control | T/C (endpoint: mean survival time, dose: 100.0 mg/kg/injection, schedule: Q01DX009 (ip), vehicle: Klucel (hydroxypropylcellulose) (HPC)): 91 % of control | T/C (endpoint: mean survival time, dose: 200.0 mg/kg/injection, schedule: Q01DX009 (ip), vehicle: Klucel (hydroxypropylcellulose) (HPC)): 108 % of control

COc1ccc([N+](=O)[O-])cc1NC(=O)Nc1cccc(Cl)c1
T/C [7]: 91 % of control | T/C [8]: 97 % of control | T/C [9]: 91 % of control

COc1ccc(CC(=O)NCCc2ccc3c(c2)OCO3)cc1
T/C [1]: 91 % of control | T/C [2]: 87 % of control

OCC1OC(c2[nH]nc3c(NO)ncnc23)C(O)C1O (stereo not drawn)
T/C [12]: 107 % of control | T/C [13]: 107 % of control

O=Cc1cc(Cl)ccc1O
T/C [16]: 108 % of control | T/C [10]: 95 % of control | T/C [17]: 102 % of control | T/C [11]: 95 % of control

Nc1ccc(CNc2ccccc2)cc1
T/C (endpoint: mean survival time, dose: 100.0 mg/kg/injection, schedule: Q04DX002 (ip), vehicle: other): 95 % of control and 103 % of control | T/C (endpoint: mean survival time, dose: 200.0 mg/kg/injection, schedule: Q04DX002 (ip), vehicle: other): 100 % of control and 106 % of control | T/C (endpoint: mean survival time, dose: 400.0 mg/kg/injection, schedule: Q04DX002 (ip), vehicle: other): 118 % of control and 91 % of control
